The record followed here is the supplement of paper PMC4862054.

What all share (conditions): incubation time: 72 h
Experiment [1] relates to CAL-85-1. The experiment is described as follows: normalised response (% of control), CellTiter-Glo; higher = more viable cells (100 = DMSO, 0 = benzethonium chloride kill control). An outline of the steps: (§1)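 For each plate, 0.1 % DMSO was set to 100 and a positive kill control to 0. Breast cancer cell lines (20 µl suspension) were seeded into 384-well plates already holding compound at 5 concentrations in 10-fold steps over a 10,000-fold range chosen per compound, and incubated for 72 h. CellTox Green fluorescence at 485/520 nm was read before CellTiter-Glo luminescence, which followed 10 min at room temperature. Each value is the normalised signal at one concentration.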

The test system of another experiment is SK-BR-3. The experiment is described as above. In a few lines: as §1
The subject of experiment [2] is HDQ-P1. Described as above. An outline of the steps:
as §1

The subject of experiment [3] is CAL-148. The experiment is described as above. In a few lines: as §1
In a further experiment the test system is MCF-10A. The experiment is described as above. An outline of the steps: as §1
The test system of experiment [4] is MFM-223. Described as above. An outline of the steps:
as §1

The subject of experiment [5] is DU-4475. The description is as above. In a few lines:
as §1

Experiment [6] has as its system HCC1143. Described as above. An outline of the steps:
as §1

Experiment [7] has as its system BT-474. The description is as above. An outline of the steps:
as §1

A further experiment concerns MDA-MB-453. Put plainly: normalised viability (% of control), CellTiter-Blue; higher = more viable cells (about 100 = DMSO control). An outline of the steps: (§2)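 Vehicle (100) and a positive kill control (0) anchored the normalisation of each plate, and Z'-factor was used for quality control. Breast cancer cell lines in 20 µl suspension were incubated 72 h over compound in 5 µl medium in 384-well plates, followed by CellTiter-Blue at 560/590 nm. The value is normalised viability at a single listed concentration of the series.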

In experiment [8] the test system is CAL-85-1. The description is as above. An outline of the steps: as §2
For another experiment, the system named is BT-549. Described as above. In a few lines:
as §2

A further experiment concerns MDA-MB-468. The experiment is described as above. In a few lines: as §2
Experiment [9] concerns HDQ-P1. The experiment is described as above. In a few lines: as §2
In experiment [10] the test system is CAL-148. The experiment is described as above. An outline of the steps: as §2
In the next experiment the test system is HCC1599. The description is as above. In a few lines:
as §2

For experiment [11], the system named is MFM-223. The experiment is described as above. An outline of the steps: as §2
A further experiment relates to MDA-MB-436. Described as above. An outline of the steps:
as §2

Experiment [12] has as its system DU-4475. The description is as above. In a few lines: as §2
The next experiment relates to Hs578T. The experiment is described as above. In a few lines:
as §2

The next experiment deals with MDA-MB-231. The experiment is described as above. An outline of the steps:
as §2

For experiment [13], the system named is HCC1143. The description is as above. In a few lines: as §2
The test system of another experiment is CAL-51. The description is as above. In a few lines: as §2
For experiment [14], the system named is BT-474. The description is as above. An outline of the steps:
as §2

The test system of a further experiment is HCC1937. The description is as above. In a few lines: as §2

As for `Cc1sc2c(c1C)C(c1ccc(Cl)cc1)=N[C@@H](CC(=O)OC(C)(C)C)c1nnc(C)n1-2` [(+)JQ1] (1000 nM), the normalised response in the experiment with CAL-85-1 [1] was 38.7%; in the experiment on SK-BR-3, 66.9%; in the experiment with HDQ-P1 [2], 68.5%; with CAL-148 [3] it was 71.5%; with MCF-10A, 57.1%; in the experiment on MFM-223 [4] it was 58.2%. The normalised response with DU-4475 [5] was determined as 56.6%; in the experiment with HCC1143 [6], 72.8%; in the experiment on BT-474 [7], 69.9%.

Regarding `CC(C)(C)c1cnc(CSc2cnc(NC(=O)C3CCNCC3)s2)o1` [SNS-032], the normalised viability with MDA-MB-453 (3 nM) worked out at 118%; with MDA-MB-453 (30 nM), 92.7%; in the experiment with MDA-MB-453 (100 nM), 70.8%; in the experiment on CAL-85-1 [8] (3 nM), 88.8%; in the experiment with CAL-85-1 [8] (30 nM) it was 78.5%; in the experiment on CAL-85-1 [8] (100 nM), 70.1%. Moreover, the normalised viability in the experiment with BT-549 (10 nM) worked out at 94.8%; in the experiment with BT-549 (1000 nM), 11.6%; in the experiment with BT-549 (10000 nM), 9.46%; in the experiment on MDA-MB-468 (10 nM) it was 114%; with MDA-MB-468 (1000 nM) it was 11.3%; in the experiment with MDA-MB-468 (10000 nM) it was 5.84%. The normalised viability in the experiment on HDQ-P1 [9] (3 nM) was 113%; with HDQ-P1 [9] (30 nM) it was 93.5%; in the experiment with HDQ-P1 [9] (100 nM), 63%; with CAL-148 [10] (3 nM) it was 91.9%; with CAL-148 [10] (30 nM), 99.5%; in the experiment on CAL-148 [10] (100 nM), 77.1%. Further, the normalised viability in the experiment with HCC1599 (10 nM) came to 113%; in the experiment with HCC1599 (1000 nM), 17.4%; in the experiment on HCC1599 (10000 nM), 22.4%; in the experiment with MFM-223 [11] (10 nM), 87.9%; in the experiment with MFM-223 [11] (1000 nM), 14.2%; with MFM-223 [11] (10000 nM), 20%. Besides, the normalised viability in the experiment with MDA-MB-436 (10 nM) was determined as 105%; in the experiment with MDA-MB-436 (1000 nM), 16.2%; in the experiment with MDA-MB-436 (10000 nM), 15.1%; with DU-4475 [12] (3 nM), 101%; in the experiment on DU-4475 [12] (30 nM), 86.9%; in the experiment with DU-4475 [12] (100 nM) it was 87.5%. Besides, the normalised viability was 104% in the experiment with Hs578T (10 nM); 5.65% in the experiment with Hs578T (1000 nM); 4% in the experiment with Hs578T (10000 nM); 106% with MDA-MB-231 (10 nM); 8.24% with MDA-MB-231 (1000 nM); 7.03% in the experiment on MDA-MB-231 (10000 nM). In addition, the normalised viability in the experiment on HCC1143 [13] (10 nM) came out at 79.7%; in the experiment on HCC1143 [13] (1000 nM) it was 17.5%; in the experiment with HCC1143 [13] (10000 nM), 16.6%; in the experiment on CAL-51 (3 nM), 113%; in the experiment on CAL-51 (30 nM), 107%; in the experiment with CAL-51 (100 nM), 107%. The normalised viability with BT-474 [14] (10 nM) was 119%; with BT-474 [14] (1000 nM) it was 26.5%; in the experiment on BT-474 [14] (10000 nM) it was 35%; with HCC1937 (10 nM) it was 138%; in the experiment with HCC1937 (1000 nM), 23.1%; in the experiment with HCC1937 (10000 nM), 17.1%.

Take `CC1(C)CNc2cc(NC(=O)c3cccnc3NCc3ccncc3)ccc21` [Motesanib] (1000 nM): the normalised response in the experiment with CAL-85-1 [1] was determined as 93.5%; in the experiment with SK-BR-3, 80.6%; in the experiment on HDQ-P1 [2], 96.6%; in the experiment with CAL-148 [3], 86.4%; in the experiment with MCF-10A it was 96.9%; in the experiment with MFM-223 [4], 91%. For the same compound, the normalised response is 98.4% in the experiment with DU-4475 [5], 93.6% with HCC1143 [6] and 91.9% in the experiment with BT-474 [7].

Consider `CC(=O)O[C@@]12CO[C@@H]1C[C@H](O)[C@@]1(C)C(=O)[C@H](O)C3=C(C)[C@@H](OC(=O)[C@H](O)[C@@H](NC(=O)OC(C)(C)C)c4ccccc4)C[C@@](O)([C@@H](OC(=O)c4ccccc4)[C@H]21)C3(C)C` [Docetaxel] (100 nM), for which the normalised response is 28.1% in the experiment on CAL-85-1 [1]; 10.1% with SK-BR-3; 67.1% in the experiment with HDQ-P1 [2]; 36.6% with CAL-148 [3]; 41.5% in the experiment with MCF-10A; 40% in the experiment on MFM-223 [4]. Also, the normalised response with DU-4475 [5] is 34.7%; with HCC1143 [6] it was 31.5%; in the experiment with BT-474 [7], 38.3%.

`Oc1ncnc2[nH]ncc12` [Allopurinol] (1000 nM): the normalised response with CAL-85-1 [1] came to 96.2%; with SK-BR-3, 112%; in the experiment with HDQ-P1 [2], 98.1%; in the experiment with CAL-148 [3], 99.2%; with MCF-10A it was 106%; with MFM-223 [4], 108%. In addition, the results for the normalised response with DU-4475 [5], in the experiment on HCC1143 [6] and with BT-474 [7] were 105%, 107% and 101%, respectively.

Turning to `O=NN(CCCl)C(=O)NCCCl` [Carmustine] (1000 nM), the normalised response with CAL-85-1 [1] amounted to 97.5%; in the experiment on SK-BR-3 it was 96.2%; in the experiment on HDQ-P1 [2] it was 101%; in the experiment with CAL-148 [3] it was 91.3%; in the experiment with MCF-10A, 98.3%; in the experiment with MFM-223 [4], 97.6%. Besides, the normalised response with DU-4475 [5] was determined as 98.9%; in the experiment on HCC1143 [6] it was 100%; in the experiment with BT-474 [7], 95.5%.

With `CC(C)(C)c1cnc(CSc2cnc(NC(=O)C3CCNCC3)s2)o1` [SNS-032] (1000 nM), the normalised response in the experiment with CAL-85-1 [1] came out at 6.5%; in the experiment on SK-BR-3, 3.47%; in the experiment on HDQ-P1 [2] it was 20.8%; with CAL-148 [3], 53.8%; in the experiment on MCF-10A, 14.3%; in the experiment with MFM-223 [4], 18.9%. For the same compound, the normalised response in the experiment with DU-4475 [5] stood at 6.57%; in the experiment on HCC1143 [6], 12.1%; in the experiment on BT-474 [7], 20.2%.

For `Nc1ncn([C@@H]2O[C@H](CO)[C@@H](O)[C@H]2O)c(=O)n1` [Azacitidine] (1000 nM), the normalised response is 106% in the experiment on CAL-85-1 [1]; 91.7% in the experiment on SK-BR-3; 96.4% with HDQ-P1 [2]; 96.2% with CAL-148 [3]; 110% in the experiment with MCF-10A; 96.7% with MFM-223 [4]. Besides, the normalised response with DU-4475 [5] was determined as 90.5%; with HCC1143 [6], 99.5%; in the experiment with BT-474 [7], 96.7%.

For the compound `COc1cc2c(cc1O)CC[C@@H]1[C@@H]2CC[C@]2(C)[C@@H](O)CC[C@@H]12` [2-methoxyestradiol] (1000 nM), the normalised response with CAL-85-1 [1] came out at 77.6%; in the experiment with SK-BR-3 it was 83.2%; with HDQ-P1 [2], 99.9%; with CAL-148 [3], 96.4%; in the experiment with MCF-10A it was 96%; in the experiment on MFM-223 [4], 75.3%. In addition, the normalised response came out at 98.5% in the experiment with DU-4475 [5], 82.5% with HCC1143 [6] and 68.9% with BT-474 [7].

With `CC1=C2C[C@H]3[C@@H](CC=C4C[C@@H](O)CC[C@@]43C)[C@@H]2CC[C@]12O[C@@H]1C[C@H](C)CN[C@H]1[C@H]2C` [Cyclopamine] (1000 nM), the normalised response with CAL-85-1 [1] amounted to 106%; with SK-BR-3 it was 111%; in the experiment with HDQ-P1 [2], 103%; with CAL-148 [3] it was 105%; in the experiment on MCF-10A, 106%; in the experiment with MFM-223 [4], 110%. Moreover, the normalised response with DU-4475 [5] worked out at 99.5%; with HCC1143 [6] it was 105%; in the experiment with BT-474 [7] it was 95.7%.

On to `CC[C@@H]1C(=O)OC[C@@H]1Cc1cncn1C` [Pilocarpine] (4000 nM), for which the normalised response with CAL-85-1 [1] amounted to 102%; in the experiment with SK-BR-3, 92.4%; in the experiment on HDQ-P1 [2], 92%; in the experiment with CAL-148 [3] it was 91.6%; with MCF-10A, 93.8%; with MFM-223 [4] it was 94.1%. Besides, the results for the normalised response in the experiment on DU-4475 [5], in the experiment with HCC1143 [6] and with BT-474 [7] were 97%, 92.2% and 92.2%, respectively.

As for `O=C1CN2Cc3c(ccc(Cl)c3Cl)N=C2N1` [Anagrelide] (1000 nM), the normalised response with CAL-85-1 [1] is 101%; with SK-BR-3 it was 98.2%; in the experiment with HDQ-P1 [2] it was 95.1%; in the experiment with CAL-148 [3], 95%; with MCF-10A, 101%; in the experiment with MFM-223 [4], 102%. For the same compound, the normalised response with DU-4475 [5] was determined as 98%; in the experiment on HCC1143 [6], 97.9%; in the experiment on BT-474 [7] it was 90.7%.
